Earlier results, collected in patent publication US12440455B2, “Methods of administering cannabinoids” (IMPACT NATURALS, INC., priority 2022, dated 2025).

Experiments:
[1] = tested on: SARS-CoV-2; details: Nguyen et al., Sci. Adv. 8, eabi6110 (2022)
[2] = molecular target: CB2 (Homo sapiens, UniProt P34972); details: WHO assessment
Sequence of CB2 (P34972 whole entry, species assumed): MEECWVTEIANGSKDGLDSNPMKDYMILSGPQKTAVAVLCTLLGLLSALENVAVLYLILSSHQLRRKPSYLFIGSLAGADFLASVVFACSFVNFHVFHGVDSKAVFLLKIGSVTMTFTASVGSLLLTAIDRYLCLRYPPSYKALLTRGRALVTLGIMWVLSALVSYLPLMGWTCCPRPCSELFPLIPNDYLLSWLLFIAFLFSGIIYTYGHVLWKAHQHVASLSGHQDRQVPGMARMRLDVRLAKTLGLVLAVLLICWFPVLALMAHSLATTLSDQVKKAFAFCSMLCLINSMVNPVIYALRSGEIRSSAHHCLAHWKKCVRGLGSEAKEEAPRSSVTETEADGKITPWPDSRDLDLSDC

C=C(C)[C@@H]1CCC(C)=C[C@H]1c1c(O)cc(CCCCC)cc1O [Cannabidiol]
aqueous solubility: approximately 0.013 milligrams per milliliter | inhibition of SARS-CoV-2 replication [1]: inhibit SARS-CoV-2 replication | affinity to CB2 [2]: low affinity
